Several values for one entry are separate records, joined by “and”; a condition that tells them apart may be missing. Equal values may be shown once. Activity calls are given as the source filed them.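 Rule for the calls: active = compounds whose fitted AC50 lies at or below twice their top valid test dose; inconclusive = flat curve between -70 and -30 percent, or unreliable curve fit; inactive = the rest.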 Bounds are passed on as bounds.

The target in one assay is Transforming acidic coiled-coil-containing protein 3 (Homo sapiens) (UniProt Q9Y6A5). Kind of assay: potency against ARNT PAS-B/TACC3 association – biochemical, AlphaScreen, dry powder, dose response (AID 720563). Particulars: AlphaScreen His-ARNT PAS-B/GST-TACC3 binding, luminescence. (In Alpha technology, singlet oxygen from a donor bead excites a nearby acceptor bead.)
As to `CC(C)Cc1nnc(NC(=O)c2cccc(S(=O)(=O)N3CCOCC3)c2)s1`, the AC50 was > 136000 nM (inactive).

As for `c1ccc(-c2nc(-c3ccncc3)n[nH]2)nc1`, the concentration at half-maximal activity (AC50) is 368 nM and 190 nM.

For `CC1CCN(S(=O)(=O)c2ccc(C(=O)Nc3nnc(-c4ccco4)o3)cc2)CC1`, the concentration at half-maximal activity (AC50) is 34100 nM.

With `Cc1ccc(C(=O)Nc2nc(-c3ccccn3)cs2)cc1S(=O)(=O)N1CCOCC1`, the AC50 is 1110 nM.

For `Cc1cccc(NC(=O)CSc2ccc(-c3ccccn3)nn2)c1C`, the AC50 was 819 nM.

With `COc1ccc(-c2nnc(NC(=O)c3ccc(S(=O)(=O)N4CCC(C)CC4)cc3)o2)cc1`, the AC50 was 17800 nM.

For `O=C(CSc1ccc(-c2ccccn2)nn1)Nc1nccs1`, the concentration at half-maximal activity (AC50) was 262 nM.

Regarding `CCCCC(=O)NC(c1ccco1)c1ccc2cccnc2c1O` (stereo unspecified), the AC50 is 1390 nM.

Regarding `O=C(Nc1nc(-c2ccccn2)cs1)c1ccc(S(=O)(=O)N2CCOCC2)cc1`, the AC50 is 342 nM.

Consider `Cc1nnc(NC(=O)c2ccc(S(=O)(=O)N3CCCCC3)cc2)o1`, for which the AC50 is 14300 nM.

For the compound `CC1CCN(S(=O)(=O)c2ccc(C(=O)Nc3nnc(-c4ccno4)o3)cc2)CC1`, the AC50 is 11400 nM.

`O=C(Nc1nnc(-c2ccc(F)cc2)o1)c1ccc(S(=O)(=O)N2CCCCC2)cc1`: the AC50 is 23000 nM.

In the case of `O=C(Nc1nc(-c2ccncc2)cs1)c1cccc(S(=O)(=O)N2CCOCC2)c1`, the AC50 is 65900 nM.

As for `CC1CCN(S(=O)(=O)c2ccc(C(=O)Nc3nnc(C4=COCCO4)o3)cc2)CC1`, the half-maximal activity concentration (AC50) was 17600 nM.

Consider `CC(C)CC(=O)NC(c1cccs1)c1ccc2cccnc2c1O` (stereo unspecified), for which the AC50 was 797 nM.

Regarding `COC(=O)c1ccc(NC(=O)CSc2ccc(-c3ccccn3)nn2)cc1`, the AC50 was 630 nM.

Turning to `CC1CCN(S(=O)(=O)c2ccc(C(=O)Nc3nnc(-c4ccccc4)o3)cc2)CC1`, the AC50 is 20400 nM.

Turning to `CC1CC(C)CN(S(=O)(=O)c2ccc(C(=O)Nc3nnc(C4=COCCO4)o3)cc2)C1` (stereo unspecified), the AC50 is 35600 nM.

For `CCc1cc2c(=O)[nH]c(-c3ccccn3)nc2s1`, the AC50 was 1240 nM.

As to `CC(C)C(=O)NC(c1ccco1)c1cc(Cl)c2cccnc2c1O` (stereo unspecified), the AC50 was 5100 nM.

In the case of `CC1CCN(S(=O)(=O)c2ccc(C(=O)Nc3nnc(-c4ccccn4)o3)cc2)CC1`, the AC50 was 39600 nM.

As to `O=C(CSc1ccc(-c2ccccn2)nn1)Nc1ccccc1`, the half-maximal activity concentration (AC50) was 869 nM.

Turning to `CCn1nc(-c2cccnc2)nc2c(=O)n(C)c(=O)nc1-2`, the AC50 is 78.4 nM.

As for `O=C(Cc1ccccc1)NC(c1ccco1)c1ccc2cccnc2c1O` (stereo unspecified), the AC50 was 1490 nM.

On to `CC1CCN(S(=O)(=O)c2ccc(C(=O)Nc3nnc(-c4cccs4)o3)cc2)CC1`, for which the concentration at half-maximal activity (AC50) was 49800 nM.

With `CC(C)C(=O)NC(c1ccco1)c1ccc2cccnc2c1O` (stereo unspecified), the AC50 is 452 nM.

For the compound `Nc1nc(-c2ccccn2)nc(N)c1Cc1ccc(Cl)cc1Cl`, the AC50 was 649 nM.

Take `O=C(Nc1nc(-c2ccccn2)cs1)c1ccco1`: the concentration at half-maximal activity (AC50) is 820 nM.

For `COC(=O)Cc1cc(=O)n(-c2nc3ccccc3[nH]2)[nH]1`, the AC50 is 1910 nM.

Turning to `O=C(Nc1nnc(C2=COCCO2)o1)c1ccc(S(=O)(=O)N2CCCCC2)cc1`, the AC50 was 19100 nM.

For `CC1CCCN(S(=O)(=O)c2ccc(C(=O)Nc3nnc(C4=COCCO4)o3)cc2)C1` (stereo unspecified), the AC50 is 11200 nM.

For the compound `Cc1c(C(=O)N(C)C)sc2nc(-c3ccccn3)[nH]c(=O)c12`, the AC50 is 1750 nM.

In the case of `O=C(CSc1ccc(-c2ccccn2)nn1)N1CCCC1`, the AC50 was 1680 nM.

Consider `O=C(CSc1ccc(-c2ccccn2)nn1)NC1CCCCC1`, for which the AC50 was 1630 nM.

Regarding `Cc1ccc(C(=O)Nc2nc(-c3ccccc3)cs2)o1`, the AC50 was > 136000 nM (inactive).

As for `O=C(CSc1n[nH]c(-c2ccccn2)n1)Nc1ccc(Cl)cc1`, the half-maximal activity concentration (AC50) is 884 nM.

`CSc1ccc(-c2nnc(NC(=O)c3ccc(S(=O)(=O)N4CCC(C)CC4)cc3)o2)cc1`: the concentration at half-maximal activity (AC50) is 5810 nM.

Consider `Cc1ccc(C(=O)Nc2nc(-c3ccccn3)cs2)o1`, for which the AC50 was 806 nM.

Consider `CC1CCN(S(=O)(=O)c2ccc(C(=O)Nc3nnc(C4CC4)o3)cc2)CC1`, for which the AC50 was 16700 nM.

The assay is the same for the next values; noted with them: AlphaScreen His-ARNT PAS-B/GST-TACC3 binding, luminescence; at 68 µM (top of the series).
For the compound `FC(F)(F)c1cc(-c2nn[nH]n2)cc(C(F)(F)F)c1`, the “activity change, negative = inhibition” value was “inactive”.

Turning to `Cc1ccc(S(=O)(=O)CCc2nnc(NC(=O)c3ccccc3)s2)cc1`, the “activity change, negative = inhibition” value was “inactive”.

Usually AC50 stands for the concentration giving half of the maximal activity seen.

Source of the values: PubChem BioAssay AID720563 (Broad Institute, 2013).
